From ChEMBL document CHEMBL1201862, “PubChem BioAssay data set” (2004)
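Method: 48-hour compound exposure of cells in 96-well plates, five concentrations, linear interpolation of endpoints. GI50 is the concentration that inhibits growth by half.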 Active and inactive are the calls of the source. Cut-off read from the data, not from the text of the source: active = GI50 up to about 1.1 µM and inactive = higher.

What was measured:
Experiment in all cases: DTP human tumour cell line panel, 48 h
OVCAR-5 = test system: OVCAR-5
SN12C = test system: SN12C
UO-31 = test system: UO-31
RPMI-8226 = test system: RPMI-8226
RXF 393 = test system: RXF 393
COLO 205 = test system: COLO 205
SK-MEL-5 = test system: SK-MEL-5
UACC-62 = test system: UACC-62
SF-295 = test system: SF-295
UACC-257 = test system: UACC-257
OVCAR-3 = test system: OVCAR-3
CAKI-1 = test system: CAKI-1
HCT-116 = test system: HCT-116
LOX IMVI = test system: LOX IMVI
IGROV-1 = test system: IGROV-1
SW-620 = test system: SW-620
SNB-19 = test system: SNB-19
TK-10 = test system: TK-10
ACHN = test system: ACHN

Measured: GI50

COc1ccc(C2C3CCCC(C3=O)C(c3ccc(OC)cc3)N2N=O)cc1 (configuration not stated)
inactive: OVCAR-5 > 55.6 µM | SN12C 18.5 µM | UO-31 56.1 µM | RPMI-8226 20.7 µM | RXF 393 18.9 µM | COLO 205 20.1 µM | SK-MEL-5 17.7 µM | UACC-62 28.6 µM | SF-295 20.7 µM | UACC-257 27.9 µM | OVCAR-3 6.71 µM | CAKI-1 29.9 µM | HCT-116 29 µM | LOX IMVI 18 µM | IGROV-1 35.5 µM | SW-620 42.9 µM | SNB-19 36.3 µM

N#CC(Nc1cccc(C(F)(F)F)c1)c1ccccc1C(F)(F)F (configuration not stated)
inactive: OVCAR-5 14.8 µM | SN12C 7.4 µM | UO-31 17.9 µM | TK-10 14.7 µM | RXF 393 12.2 µM | COLO 205 3.26 µM | SK-MEL-5 18 µM | UACC-62 16.2 µM | SF-295 10.5 µM | UACC-257 14.6 µM | OVCAR-3 6.52 µM | ACHN 14.5 µM | CAKI-1 2.73 µM | HCT-116 7.66 µM | LOX IMVI 5.51 µM | IGROV-1 22.7 µM | SW-620 3.08 µM | SNB-19 17.3 µM

Cc1ccc(/C=C2\Cc3cccc(C)c3C2=O)c(C(=O)O)c1
inactive: OVCAR-5 > 100 µM | SN12C > 100 µM | UO-31 17.3 µM | RPMI-8226 36.3 µM | TK-10 > 100 µM | RXF 393 29.3 µM | SK-MEL-5 71.1 µM | SF-295 > 100 µM | UACC-257 > 100 µM | OVCAR-3 94.2 µM | ACHN 28.7 µM | CAKI-1 19.9 µM | HCT-116 72.9 µM | LOX IMVI 64.4 µM | IGROV-1 96.6 µM | SW-620 > 100 µM | SNB-19 > 100 µM

CCCCCCCC(=O)OC[C@@H](C[As](=O)(O)O)OC(=O)CCCCCCC
inactive: SN12C 11.2 µM | UO-31 2.59 µM | RPMI-8226 10.3 µM | RXF 393 4.97 µM | COLO 205 17.8 µM | SK-MEL-5 13.9 µM | UACC-62 11.3 µM | SF-295 15.1 µM | UACC-257 16.4 µM | ACHN 12.7 µM | HCT-116 10.6 µM | IGROV-1 5.21 µM | SW-620 12.9 µM | SNB-19 14.2 µM

Cc1ccc(SC(CCC(Sc2ccc(C)cc2)Sc2ccc(C)cc2)Sc2ccc(C)cc2)cc1
inactive: SN12C > 100 µM | UO-31 > 100 µM | RPMI-8226 > 100 µM | TK-10 > 100 µM | RXF 393 > 100 µM | COLO 205 > 100 µM | SK-MEL-5 > 100 µM | UACC-62 > 100 µM | SF-295 > 100 µM | UACC-257 > 100 µM | OVCAR-3 > 100 µM | ACHN > 100 µM | CAKI-1 > 100 µM | HCT-116 > 100 µM | LOX IMVI > 100 µM | IGROV-1 > 100 µM | SW-620 > 100 µM | SNB-19 > 100 µM

CSCC[C@@H]1C(=O)N(C)[C@H](C(C)(C)C)N1C(=O)c1ccccc1
inactive: OVCAR-5 > 100 µM | SN12C > 100 µM | UO-31 > 100 µM | RPMI-8226 > 100 µM | RXF 393 > 100 µM | COLO 205 > 100 µM | SK-MEL-5 > 100 µM | UACC-62 > 100 µM | SF-295 > 100 µM | UACC-257 > 100 µM | OVCAR-3 > 100 µM | HCT-116 > 100 µM | LOX IMVI > 100 µM | IGROV-1 > 100 µM | SW-620 > 100 µM | SNB-19 > 100 µM

NC1=NN(c2ccccc2)C(=O)C1C(=O)C(=O)Nc1ccc(Cl)cc1 (configuration not stated)
inactive: OVCAR-5 > 100 µM | SN12C > 100 µM | UO-31 > 100 µM | RPMI-8226 > 100 µM | TK-10 > 100 µM | RXF 393 > 100 µM | COLO 205 > 100 µM | SK-MEL-5 > 100 µM | UACC-62 > 100 µM | SF-295 > 100 µM | UACC-257 > 100 µM | OVCAR-3 > 100 µM | ACHN > 100 µM | CAKI-1 > 100 µM | HCT-116 > 100 µM | LOX IMVI > 100 µM | IGROV-1 > 100 µM | SW-620 > 100 µM

CCCNC(=O)Nc1c([N+](=O)[O-])cc(C(F)(F)F)cc1[N+](=O)[O-]
inactive: OVCAR-5 > 100 µM | UO-31 > 100 µM | RPMI-8226 83.9 µM | TK-10 > 100 µM | RXF 393 11 µM | COLO 205 > 10 µM | SK-MEL-5 28.4 µM | UACC-62 37.3 µM | SF-295 84.9 µM | UACC-257 36.3 µM | OVCAR-3 22.3 µM | ACHN 89.9 µM | CAKI-1 > 100 µM | HCT-116 25.3 µM | LOX IMVI 62.8 µM | IGROV-1 > 100 µM | SW-620 40.8 µM | SNB-19 > 100 µM

CC1=C(C(=O)Nc2cccc(Cl)c2)C(c2ccccc2F)C(C(=O)Nc2cccc(Cl)c2)=C(C)N1
inactive: OVCAR-5 19.3 µM | SN12C 11 µM | UO-31 7.94 µM | RPMI-8226 2.77 µM | TK-10 21.5 µM | RXF 393 7.24 µM | COLO 205 11.2 µM | SK-MEL-5 13.5 µM | SF-295 17.3 µM | UACC-257 10.2 µM | OVCAR-3 10.8 µM | ACHN 9.98 µM | CAKI-1 4.99 µM | LOX IMVI 7.1 µM | IGROV-1 15 µM | SW-620 21.6 µM | SNB-19 19.2 µM

COc1ccccc1/N=N/c1c(-c2ccccc2)nn(C(=O)CC(=O)Nc2ccccc2Cl)c1-c1ccccc1
inactive: OVCAR-5 > 100 µM | SN12C > 100 µM | UO-31 > 100 µM | RPMI-8226 65.5 µM | TK-10 > 100 µM | RXF 393 24.6 µM | COLO 205 > 100 µM | SK-MEL-5 > 100 µM | UACC-62 > 100 µM | SF-295 > 100 µM | UACC-257 > 100 µM | OVCAR-3 > 100 µM | ACHN > 100 µM | HCT-116 > 100 µM | LOX IMVI > 100 µM | IGROV-1 > 100 µM | SW-620 > 100 µM | SNB-19 > 100 µM

CC(C)[C@@H](C)CC[C@@H](C)C1CC=C2[C@@H]3CCC4C[C@@H](O[Si](C)(C)C(C)(C)C)CC[C@]4(C)C3CC[C@@]21C (some centres not stated)
inactive: SN12C > 100 µM | UO-31 > 100 µM | RPMI-8226 > 100 µM | TK-10 > 100 µM | RXF 393 > 100 µM | COLO 205 > 100 µM | SK-MEL-5 > 100 µM | UACC-62 > 100 µM | UACC-257 > 100 µM | OVCAR-3 > 100 µM | ACHN > 100 µM | CAKI-1 > 100 µM | HCT-116 > 100 µM | IGROV-1 > 100 µM | SW-620 > 100 µM | SNB-19 > 100 µM
